# Assay results as given in ChEMBL document CHEMBL3611978, “Synthesis and biological evaluation of novel 7-substituted 3-(4-phenoxyphenyl)thieno[3,2-c]pyridin-4-amines as potent Bruton's tyrosine kinase (BTK) inhibitors” (Bioorg Med Chem, 2015).
# Target: Tyrosine-protein kinase BTK (Homo sapiens, UniProt Q06187)
# Assay: Inhibition of BTK (unknown origin) after 1 hr by TR-FRET assay
# Sequence of Tyrosine-protein kinase BTK (Q06187 whole entry): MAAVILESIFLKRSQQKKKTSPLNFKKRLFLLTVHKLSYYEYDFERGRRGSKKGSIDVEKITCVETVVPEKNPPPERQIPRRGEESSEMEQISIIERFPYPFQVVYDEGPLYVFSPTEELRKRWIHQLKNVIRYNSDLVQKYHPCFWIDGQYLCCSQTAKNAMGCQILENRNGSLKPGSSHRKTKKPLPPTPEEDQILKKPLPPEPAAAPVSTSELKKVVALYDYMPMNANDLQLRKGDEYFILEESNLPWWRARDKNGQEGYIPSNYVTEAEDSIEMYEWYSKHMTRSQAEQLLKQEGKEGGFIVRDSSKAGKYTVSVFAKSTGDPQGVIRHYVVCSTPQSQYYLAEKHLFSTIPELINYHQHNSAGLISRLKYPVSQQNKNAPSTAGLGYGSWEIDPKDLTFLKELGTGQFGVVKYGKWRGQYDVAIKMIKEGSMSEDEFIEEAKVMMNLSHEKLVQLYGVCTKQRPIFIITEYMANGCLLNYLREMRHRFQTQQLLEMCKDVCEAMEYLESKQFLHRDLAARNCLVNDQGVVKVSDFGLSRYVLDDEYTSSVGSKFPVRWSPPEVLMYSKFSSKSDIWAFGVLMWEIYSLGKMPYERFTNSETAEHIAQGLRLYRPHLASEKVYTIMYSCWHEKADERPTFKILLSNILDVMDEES
row,SMILES,IC50 [µM]
1,CC(C)(C)OC(=O)N1CC=C(c2cnc(N)c3c(-c4ccc(Oc5ccccc5)cc4)csc23)CC1,1.66
2,CS(=O)(=O)OC1CCCN(C(=O)CCn2cc(-c3cnc(N)c4c(-c5ccc(Oc6ccccc6)cc5)csc34)cn2)C1 (centres undefined),0.0549
3,CC(C)(C)OC(=O)N1C=C(c2cnc(N)c3c(-c4ccc(Oc5ccccc5)cc4)csc23)CCC1,2.87
4,Nc1ncc(C2=CNCCC2)c2scc(-c3ccc(Oc4ccccc4)cc3)c12,3.6
5,C=CC(=O)N1C=C(c2cnc(N)c3c(-c4ccc(Oc5ccccc5)cc4)csc23)CCC1,0.343
6,Nc1ncc(C2CCCNC2)c2scc(-c3ccc(Oc4ccccc4)cc3)c12 (centres undefined),> 10
7,C=CC(=O)N1CCCC(c2cnc(N)c3c(-c4ccc(Oc5ccccc5)cc4)csc23)C1 (centres undefined),2.3
8,Nc1ncc(C2=CCNCC2)c2scc(-c3ccc(Oc4ccccc4)cc3)c12,0.854
9,C=CC(=O)N1CC=C(c2cnc(N)c3c(-c4ccc(Oc5ccccc5)cc4)csc23)CC1,0.183
10,Nc1ncc(C2CCNCC2)c2scc(-c3ccc(Oc4ccccc4)cc3)c12,> 10

# Continued, values first:
row,IC50 [µM],SMILES
1,0.0122,Nc1ncc(-c2cnn(CC(=O)N3CCCCC3)c2)c2scc(-c3ccc(Oc4ccccc4)cc3)c12
2,0.0118,Nc1ncc(-c2cnn(CC(=O)N3CCOCC3)c2)c2scc(-c3ccc(Oc4ccccc4)cc3)c12
3,0.0095,Nc1ncc(-c2cnn(C3CCCNC3=O)c2)c2scc(-c3ccc(Oc4ccccc4)cc3)c12 (centres undefined)
4,0.0078,CC(=O)Cn1cc(-c2cnc(N)c3c(-c4ccc(Oc5ccccc5)cc4)csc23)cn1
5,0.0074,C#CCn1cc(-c2cnc(N)c3c(-c4ccc(Oc5ccccc5)cc4)csc23)cn1
6,0.0255,CNC(=O)CCn1cc(-c2cnc(N)c3c(-c4ccc(Oc5ccccc5)cc4)csc23)cn1
7,0.021,Nc1ncc(-c2cnn(CCC(=O)O)c2)c2scc(-c3ccc(Oc4ccccc4)cc3)c12
8,0.0099,C=CC(=O)NCCn1cc(-c2cnc(N)c3c(-c4ccc(Oc5ccccc5)cc4)csc23)cn1
9,1.69,C=CC(=O)n1cc(-c2cnc(N)c3c(-c4ccc(Oc5ccccc5)cc4)csc23)cn1
10,0.456,CNC(=O)CN1C=C(c2cnc(N)c3c(-c4ccc(Oc5ccccc5)cc4)csc23)CCC1

# Target: Tyrosine-protein kinase JAK2 (Homo sapiens, UniProt O60674)
# Sequence (O60674 whole entry): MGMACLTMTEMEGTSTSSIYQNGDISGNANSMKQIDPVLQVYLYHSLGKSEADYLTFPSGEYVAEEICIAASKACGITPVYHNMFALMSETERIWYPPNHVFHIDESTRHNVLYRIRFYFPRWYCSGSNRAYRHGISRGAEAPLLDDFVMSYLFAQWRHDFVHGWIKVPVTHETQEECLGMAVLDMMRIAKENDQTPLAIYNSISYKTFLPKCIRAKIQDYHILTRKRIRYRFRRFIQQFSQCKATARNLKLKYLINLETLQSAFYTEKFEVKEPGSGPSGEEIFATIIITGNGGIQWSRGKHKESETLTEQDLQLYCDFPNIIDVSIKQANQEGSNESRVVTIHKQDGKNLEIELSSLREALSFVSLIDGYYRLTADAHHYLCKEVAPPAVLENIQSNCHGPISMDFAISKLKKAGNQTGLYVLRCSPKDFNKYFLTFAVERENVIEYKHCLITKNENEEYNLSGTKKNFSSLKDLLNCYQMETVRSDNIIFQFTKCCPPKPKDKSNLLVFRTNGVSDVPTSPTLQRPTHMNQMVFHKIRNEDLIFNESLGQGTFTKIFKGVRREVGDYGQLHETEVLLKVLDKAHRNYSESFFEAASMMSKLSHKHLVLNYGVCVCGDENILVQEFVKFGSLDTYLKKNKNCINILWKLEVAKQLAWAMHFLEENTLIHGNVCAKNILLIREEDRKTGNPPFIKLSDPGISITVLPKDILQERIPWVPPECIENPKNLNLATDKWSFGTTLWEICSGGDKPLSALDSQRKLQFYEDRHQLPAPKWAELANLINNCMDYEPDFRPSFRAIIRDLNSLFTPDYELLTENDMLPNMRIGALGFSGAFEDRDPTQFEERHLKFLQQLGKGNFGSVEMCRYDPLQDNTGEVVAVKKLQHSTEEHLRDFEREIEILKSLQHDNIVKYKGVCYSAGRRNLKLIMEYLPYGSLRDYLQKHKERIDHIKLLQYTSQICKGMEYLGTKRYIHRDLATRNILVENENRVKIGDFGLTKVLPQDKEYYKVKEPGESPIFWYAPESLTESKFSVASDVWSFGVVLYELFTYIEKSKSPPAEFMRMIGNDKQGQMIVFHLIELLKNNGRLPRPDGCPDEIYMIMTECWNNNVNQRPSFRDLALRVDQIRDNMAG
# Assay: Inhibition of JAK2 (unknown origin) after 1 hr by ELISA based assay
row,IC50 [µM],SMILES
1,6.86,Nc1ncc(-c2cnn(CC(=O)N3CCOCC3)c2)c2scc(-c3ccc(Oc4ccccc4)cc3)c12

# Target: T1, Tyrosine-protein kinase JAK3 (Homo sapiens, UniProt P52333)
# T1 sequence (P52333 whole entry): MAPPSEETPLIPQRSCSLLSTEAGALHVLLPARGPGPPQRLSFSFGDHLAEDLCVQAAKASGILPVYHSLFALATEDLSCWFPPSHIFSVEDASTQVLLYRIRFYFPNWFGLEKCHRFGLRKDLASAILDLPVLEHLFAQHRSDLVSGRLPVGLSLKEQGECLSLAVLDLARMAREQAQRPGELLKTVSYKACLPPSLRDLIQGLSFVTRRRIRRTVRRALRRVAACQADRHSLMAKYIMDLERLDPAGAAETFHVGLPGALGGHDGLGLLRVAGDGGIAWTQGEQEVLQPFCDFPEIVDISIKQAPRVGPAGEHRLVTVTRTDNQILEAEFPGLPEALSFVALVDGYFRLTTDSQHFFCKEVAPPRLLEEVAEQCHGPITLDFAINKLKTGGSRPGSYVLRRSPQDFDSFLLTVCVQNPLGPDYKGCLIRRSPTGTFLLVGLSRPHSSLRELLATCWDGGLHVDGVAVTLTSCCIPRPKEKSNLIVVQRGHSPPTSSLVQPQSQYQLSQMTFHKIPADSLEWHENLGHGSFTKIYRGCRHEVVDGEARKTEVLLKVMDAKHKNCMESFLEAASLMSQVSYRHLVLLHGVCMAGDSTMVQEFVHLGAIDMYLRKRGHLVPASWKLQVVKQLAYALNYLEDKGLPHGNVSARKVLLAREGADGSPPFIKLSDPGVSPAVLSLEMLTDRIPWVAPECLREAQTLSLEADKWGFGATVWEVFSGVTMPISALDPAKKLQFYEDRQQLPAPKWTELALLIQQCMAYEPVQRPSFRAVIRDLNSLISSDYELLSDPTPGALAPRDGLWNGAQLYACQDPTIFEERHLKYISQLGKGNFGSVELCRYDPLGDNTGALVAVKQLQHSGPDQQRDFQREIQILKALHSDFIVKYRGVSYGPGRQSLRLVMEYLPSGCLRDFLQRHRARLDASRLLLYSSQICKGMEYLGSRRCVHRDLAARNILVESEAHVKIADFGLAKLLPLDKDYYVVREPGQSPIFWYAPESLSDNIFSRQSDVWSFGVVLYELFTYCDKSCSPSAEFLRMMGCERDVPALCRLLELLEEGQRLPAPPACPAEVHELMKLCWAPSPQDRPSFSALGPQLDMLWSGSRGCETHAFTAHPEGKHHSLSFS
# Assay: Inhibition of JAK3 (unknown origin) after 1 hr by ELISA based assay
row,IC50 [µM],SMILES
1,3.07,Nc1ncc(-c2cnn(CC(=O)N3CCOCC3)c2)c2scc(-c3ccc(Oc4ccccc4)cc3)c12

# Target: Vascular endothelial growth factor receptor 2 (Homo sapiens, UniProt P35968)
# Sequence (P35968 whole entry): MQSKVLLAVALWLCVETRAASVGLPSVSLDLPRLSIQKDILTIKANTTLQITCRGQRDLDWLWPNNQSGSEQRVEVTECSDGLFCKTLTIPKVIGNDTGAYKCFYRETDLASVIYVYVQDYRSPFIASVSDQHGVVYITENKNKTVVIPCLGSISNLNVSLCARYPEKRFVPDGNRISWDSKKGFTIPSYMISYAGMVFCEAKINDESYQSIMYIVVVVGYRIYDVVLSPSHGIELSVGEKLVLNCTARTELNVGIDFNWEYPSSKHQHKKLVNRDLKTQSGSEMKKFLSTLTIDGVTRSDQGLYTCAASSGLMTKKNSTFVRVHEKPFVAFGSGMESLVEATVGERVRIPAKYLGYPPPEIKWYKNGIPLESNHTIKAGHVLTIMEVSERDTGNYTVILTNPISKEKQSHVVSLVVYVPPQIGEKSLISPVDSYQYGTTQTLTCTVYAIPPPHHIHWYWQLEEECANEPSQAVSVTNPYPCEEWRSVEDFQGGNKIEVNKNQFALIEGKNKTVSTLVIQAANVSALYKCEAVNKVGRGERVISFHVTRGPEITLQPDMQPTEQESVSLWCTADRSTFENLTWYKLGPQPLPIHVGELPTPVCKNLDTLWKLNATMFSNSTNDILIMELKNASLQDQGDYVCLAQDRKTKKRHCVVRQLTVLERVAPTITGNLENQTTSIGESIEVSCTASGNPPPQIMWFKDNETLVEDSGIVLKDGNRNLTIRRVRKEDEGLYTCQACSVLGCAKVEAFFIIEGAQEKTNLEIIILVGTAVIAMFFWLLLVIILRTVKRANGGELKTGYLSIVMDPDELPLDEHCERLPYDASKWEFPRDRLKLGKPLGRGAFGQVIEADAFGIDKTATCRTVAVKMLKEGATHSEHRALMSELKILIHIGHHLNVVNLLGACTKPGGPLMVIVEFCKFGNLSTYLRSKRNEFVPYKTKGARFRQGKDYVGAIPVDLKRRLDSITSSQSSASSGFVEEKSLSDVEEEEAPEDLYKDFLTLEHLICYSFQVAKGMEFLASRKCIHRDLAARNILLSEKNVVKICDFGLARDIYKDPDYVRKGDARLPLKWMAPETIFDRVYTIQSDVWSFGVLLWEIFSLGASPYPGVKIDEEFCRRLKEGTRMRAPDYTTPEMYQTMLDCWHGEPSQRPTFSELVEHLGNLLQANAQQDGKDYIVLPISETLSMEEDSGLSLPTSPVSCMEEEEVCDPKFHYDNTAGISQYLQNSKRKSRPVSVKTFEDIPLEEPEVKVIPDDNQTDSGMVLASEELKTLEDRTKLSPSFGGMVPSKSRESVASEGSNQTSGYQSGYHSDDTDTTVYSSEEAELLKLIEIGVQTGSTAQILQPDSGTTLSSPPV
# Assay: Inhibition of KDR (unknown origin) after 1 hr by ELISA based assay
row,IC50 [µM],SMILES
1,0.191,Nc1ncc(-c2cnn(CC(=O)N3CCOCC3)c2)c2scc(-c3ccc(Oc4ccccc4)cc3)c12

# Target: Hepatocyte growth factor receptor (Homo sapiens, UniProt P08581)
# Sequence (P08581 whole entry): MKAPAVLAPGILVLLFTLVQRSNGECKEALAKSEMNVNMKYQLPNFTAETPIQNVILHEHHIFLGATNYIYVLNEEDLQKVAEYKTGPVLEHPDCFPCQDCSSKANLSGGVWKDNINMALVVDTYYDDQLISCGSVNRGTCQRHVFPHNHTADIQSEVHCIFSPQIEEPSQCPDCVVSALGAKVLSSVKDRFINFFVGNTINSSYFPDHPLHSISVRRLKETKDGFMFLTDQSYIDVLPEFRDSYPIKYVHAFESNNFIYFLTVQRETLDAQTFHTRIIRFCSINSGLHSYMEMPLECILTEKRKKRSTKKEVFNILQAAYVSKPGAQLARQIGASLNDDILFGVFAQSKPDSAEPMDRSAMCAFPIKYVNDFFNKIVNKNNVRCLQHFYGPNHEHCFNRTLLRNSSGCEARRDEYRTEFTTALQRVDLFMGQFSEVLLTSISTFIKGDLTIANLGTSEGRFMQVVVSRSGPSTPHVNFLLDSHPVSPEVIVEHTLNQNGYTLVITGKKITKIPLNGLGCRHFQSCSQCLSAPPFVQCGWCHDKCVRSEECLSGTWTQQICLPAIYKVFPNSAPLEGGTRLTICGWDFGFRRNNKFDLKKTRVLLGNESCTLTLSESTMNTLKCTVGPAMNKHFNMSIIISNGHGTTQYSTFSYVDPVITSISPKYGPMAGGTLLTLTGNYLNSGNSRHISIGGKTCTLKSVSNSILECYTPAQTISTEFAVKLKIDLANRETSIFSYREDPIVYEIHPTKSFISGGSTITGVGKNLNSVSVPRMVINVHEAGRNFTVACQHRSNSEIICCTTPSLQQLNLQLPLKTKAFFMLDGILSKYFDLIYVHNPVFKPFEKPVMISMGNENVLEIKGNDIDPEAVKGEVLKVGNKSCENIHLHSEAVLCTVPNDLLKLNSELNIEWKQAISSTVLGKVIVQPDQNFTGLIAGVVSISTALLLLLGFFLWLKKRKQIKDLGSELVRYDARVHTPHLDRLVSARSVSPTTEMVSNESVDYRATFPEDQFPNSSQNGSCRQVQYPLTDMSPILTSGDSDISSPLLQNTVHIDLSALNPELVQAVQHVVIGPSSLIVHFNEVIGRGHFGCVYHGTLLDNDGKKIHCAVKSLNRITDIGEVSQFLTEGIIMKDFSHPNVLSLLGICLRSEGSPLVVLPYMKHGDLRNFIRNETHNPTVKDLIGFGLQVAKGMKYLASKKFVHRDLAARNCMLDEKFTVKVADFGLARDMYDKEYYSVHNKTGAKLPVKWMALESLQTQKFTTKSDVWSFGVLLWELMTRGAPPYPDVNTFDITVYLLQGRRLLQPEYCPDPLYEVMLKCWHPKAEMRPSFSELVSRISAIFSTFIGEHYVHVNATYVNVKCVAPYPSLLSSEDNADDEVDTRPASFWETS
# Assay: Inhibition of c-MET (unknown origin) after 1 hr by ELISA based assay
row,IC50 [µM],SMILES
1,2.43,Nc1ncc(-c2cnn(CC(=O)N3CCOCC3)c2)c2scc(-c3ccc(Oc4ccccc4)cc3)c12
